# Reference: patent US20260365628A1, “SUBSTITUTED 3,4-DIHYDROQUINOLINONE INHIBITORS OF TSHR” (Septerna, Inc., priority 2022, published 2026)
# Target: T1, hTSHR (Homo sapiens, UniProt P16473)
# T1 construct: expressed in transfected cells
# Assay: hTSHR TR-FRET cAMP Assay (inhibition of M22-stimulated cAMP production)
# Type: cell-based
# Conditions: Expi293F Inducible cells stably expressing hTSHR; cAMP HTRF; stimulated with EC80 of anti-TSHR antibody M22; 15 min compound preincubation, 30 min at 37° C.; read-out: Activity (IC50 bins)
# Method: Assays were performed using Expi293F Inducible cells (Invitrogen) stably expressing hTSHR via a pcZeo TetO DNA plasmid. Cell lines were maintained in suspension in Expi293 Expression Medium (ThermoFisher Scientific) supplemented with 10 µg/mL Blasticidin and 10 μg/mL Zeocin and incubated at 37° C., 8% CO2, with shaking. hTSHR cells were incubated overnight at 32° C., 5% C02, with shaking, but […] Doxycycline. Assay-ready aliquots were prepared by harvesting each cell type separately 24-hours post-induction. Cells were pelleted at 4° C., resuspended in Expi293 Expression media+10% DMSO, aliquoted, and kept frozen at −80° C. until ready for use.
# For the assay, concentration-response curves of test and reference compounds were added to 384-well plates using an Echo 650 liquid handler (Beckman Coulter) and backfilled with DMSO to a final concentration of 0.5%. cAMP was measured using the cisbio cAMP Gs dynamic HTRF kit (PerkinElmer) according to manufacturer instructions. Aliquots of frozen hTSHR cells were quickly thawed and washed with phosphate-buffered saline (Sigma-Aldrich) to remove media and DMSO. The cells were resuspended in kit-supplied Stimulation Buffer at 0.8×10^6 cells/mL. 7.5 μL of the hTSHR cell dilution were added to each well of the assay plate and incubated with the compounds for 15 minutes in a 37 C, 0% CO2 incubator. 2.5 μL of Vehicle control or an EC80 concentration of recombinant human anti-TSHR antibody (M22, Creative Biolabs) was added to stimulate cAMP production. Cells were incubated with for 30 minutes at 37° C., 0% CO2. Following this incubation, the cells were lysed and accumulated cAMP was detected through the addition of kit-supplied lysis buffer containing d2-reagent and Eu-cryptate antibody. The HTRF signal was quantified using a BMG Clariostar plate reader optimized for HTRF assays. The HTRF ratio was determined by dividing the signal output at […] by that at 620 nm. Data were normalized to the signal produced by the EC80 concentration of either M22 or FSH (0% inhibition) and vehicle (no agonist, 100% inhibition).
# T1 sequence (P16473 21-764): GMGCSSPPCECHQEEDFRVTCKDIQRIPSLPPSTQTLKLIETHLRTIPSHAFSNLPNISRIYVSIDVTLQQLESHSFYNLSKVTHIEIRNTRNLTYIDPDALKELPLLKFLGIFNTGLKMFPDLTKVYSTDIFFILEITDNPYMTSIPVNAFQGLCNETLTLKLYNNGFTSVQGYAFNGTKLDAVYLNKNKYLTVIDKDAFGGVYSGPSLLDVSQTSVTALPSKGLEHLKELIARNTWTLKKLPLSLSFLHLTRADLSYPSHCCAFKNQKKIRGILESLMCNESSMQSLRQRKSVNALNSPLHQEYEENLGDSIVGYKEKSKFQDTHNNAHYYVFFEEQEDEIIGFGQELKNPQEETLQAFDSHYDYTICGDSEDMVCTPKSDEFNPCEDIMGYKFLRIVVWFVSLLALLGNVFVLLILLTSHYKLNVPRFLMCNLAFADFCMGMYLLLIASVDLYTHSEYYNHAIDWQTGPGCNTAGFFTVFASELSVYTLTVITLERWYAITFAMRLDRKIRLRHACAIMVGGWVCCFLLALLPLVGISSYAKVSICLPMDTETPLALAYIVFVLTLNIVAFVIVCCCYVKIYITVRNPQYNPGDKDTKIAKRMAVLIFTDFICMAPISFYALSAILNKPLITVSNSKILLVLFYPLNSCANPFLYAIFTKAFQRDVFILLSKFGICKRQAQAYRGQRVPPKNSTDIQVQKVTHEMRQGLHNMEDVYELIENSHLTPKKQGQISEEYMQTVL
row,IC50 [nM],Structure (SMILES)
1,< 100,"CC1Oc2cc(NC(=O)NC(C)(C)C)ccc2N(Cc2cccc(Cl)c2)C1=O (single isomer, unassigned) [Example 43]"
2,> 1000,"C[C@H]1Oc2cc(NC(=O)NC(C)(C)C)ccc2N([C@@H](C)c2cncc(C(F)(F)F)n2)C1=O (single isomer, unassigned) [Example 306]"
3,100 to 1000,"C[C@H]1Oc2cc(NC(=O)NC(C)(C)C)ccc2N([C@@H](C)c2ccnc(C(F)(F)F)n2)C1=O (single isomer, unassigned) [Example 310]"
4,> 1000,"C[C@H](c1ccnc(C(F)(F)F)n1)N1C(=O)[C@@H](C)Oc2cc(NC(=O)NC(C)(C)C)ccc21 (single isomer, unassigned) [Example 311]"
5,> 1000,"C[C@H]1Cc2cc(NC(=O)NC(C)(C)C)c(F)cc2N(Cc2ccccc2)C1=O (single isomer, unassigned) [Example 333]"
6,> 1000,"C[C@@H]1Cc2cc(NC(=O)NC(C)(C)C)c(F)cc2N(Cc2ccccc2)C1=O (single isomer, unassigned) [Example 334]"
7,< 100,"CC1Oc2cc(NC(=O)NC(C)(C)C)ccc2N(Cc2cccc(Cl)c2)C1=O (stereo in doubt) [Example 44, (S)-1-(tert-butyl)-3-(4-(3-chlorobenzyl)-2-methyl-3-oxo-3,4-dihydro-2H-benzo[b][1,4]oxazin-7-yl)urea]"
8,100 to 1000,"C[C@@H](c1cccc(C(O)C(F)(F)F)n1)n1c(=O)cnc2cc(NC(=O)NC(C)(C)C)ccc21 (stereo in doubt) [Example 154, 1-(tert-butyl)-3-(2-oxo-1-((S)-1-(6-((R)-2,2,2-trifluoro-1-hydroxyethyl)pyridin-2-yl)ethyl)-1,2-dihydroquinoxalin-6-yl)urea]"
9,< 100,"C[C@@H](c1cccc(OC(F)(F)F)c1)n1c(=O)cnc2cc(NC(=O)C3CCC3(C)C)ccc21 (stereo in doubt) [Example 219, (S)-2,2-dimethyl-N-(2-oxo-1-((S)-1-(3-(trifluoromethoxy)phenyl)ethyl)-1,2-dihydroquinoxalin-6-yl) cyclobutane-1-carboxamide]"
10,100 to 1000,"CC(c1cccc(OC(F)(F)F)c1)n1c(=O)cnc2cc(NC(=O)[C@H]3CCC3(C)C)ccc21 (stereo in doubt) [Example 220, (S)-2,2-dimethyl-N-(2-oxo-1-((R)-1-(3-(trifluoromethoxy)phenyl)ethyl)-1,2-dihydroquinoxalin-6-yl) cyclobutane-1-carboxamide]"
11,100 to 1000,"CC1Oc2nc(NC(=O)NC(C)(C)C)c(C(F)(F)F)cc2N(Cc2ccccc2)C1=O (stereo in doubt) [Example 378, (R)-1-(1-benzyl-3-methyl-2-oxo-7-(trifluoromethyl)-2,3-dihydro-1H-pyrido[2,3-b][1,4]oxazin-6-yl)-3-(tert-butyl)urea]"
12,< 100,"CC(C)(C)NC(=O)Nc1ccc2c(c1)CCC(=O)N2Cc1ccccc1 [Example 1, 1-(1-benzyl-2-oxo-1,2,3,4-tetrahydroquinolin-6-yl)-3-(tert-butyl)urea]"
13,> 1000,"CC(C)(C)NC(=O)Nc1ccc2c(c1)CCC(=O)N2Cc1ccccn1 [Example 2, 1-(tert-butyl)-3-(2-oxo-1-(pyridin-2-ylmethyl)-1,2,3,4-tetrahydroquinolin-6-yl)urea]"
14,< 100,"CC(c1ccccc1)N1C(=O)CCc2cc(NC(=O)NC(C)(C)C)ccc21 (stereo not drawn) [Example 3, 1-(tert-butyl)-3-(2-oxo-1-(1-phenylethyl)-1,2,3,4-tetrahydroquinolin-6-yl)urea]"
15,> 1000,"Cn1ccc(CN2C(=O)CCc3cc(NC(=O)NC(C)(C)C)ccc32)n1 [Example 4, 1-(tert-butyl)-3-(1-((1-methyl-1H-pyrazol-3-yl)methyl)-2-oxo-1,2,3,4-tetrahydroquinolin-6-yl)urea]"
16,< 100,"CC1Cc2cc(NC(=O)NC(C)(C)C)ccc2N(Cc2ccccc2)C1=O (stereo not drawn) [Example 5, 1-(1-benzyl-3-methyl-2-oxo-1,2,3,4-tetrahydroquinolin-6-yl)-3-(tert-butyl)urea]"
17,< 100,"CC(C)(C)NC(=O)Nc1ccc2c(c1)CCC(=O)N2Cc1cccc(Cl)c1 [Example 6, 1-(tert-butyl)-3-(1-(3-chlorobenzyl)-2-oxo-1,2,3,4-tetrahydroquinolin-6-yl)urea]"
18,< 100,"CC(C)(C)NC(=O)Nc1ccc2c(c1)OCC(=O)N2Cc1ccccc1 [Example 7, 1-(4-benzyl-3-oxo-3,4-dihydro-2H-benzo[b][1,4]oxazin-7-yl)-3-(tert-butyl)urea]"

row,IC50 [nM],Structure (SMILES)
1,100 to 1000,"CC(C)(C)NC(=O)Nc1ccc2c(c1)CCC(=O)N2Cc1ccccc1Cl [Example 8, 1-(tert-butyl)-3-(1-(2-chlorobenzyl)-2-oxo-1,2,3,4-tetrahydroquinolin-6-yl)urea]"
2,< 100,"CC(C)(C)OC(=O)Nc1ccc2c(c1)CCC(=O)N2Cc1ccccc1 [Example 9, tert-butyl (1-benzyl-2-oxo-1,2,3,4-tetrahydroquinolin-6-yl)carbamate]"
3,> 1000,"CC(C)(C)NC(=O)Nc1ccc2c(c1)C(C)(C)CC(=O)N2Cc1ccccc1 [Example 10, 1-(1-benzyl-4,4-dimethyl-2-oxo-1,2,3,4-tetrahydroquinolin-6-yl)-3-(tert-butyl)urea]"
4,100 to 1000,"COCC1Cc2cc(NC(=O)NC(C)(C)C)ccc2N(Cc2ccccc2)C1=O (stereo not drawn) [Example 11, 1-(1-benzyl-3-(methoxymethyl)-2-oxo-1,2,3,4-tetrahydroquinolin-6-yl)-3-(tert-butyl)urea]"
5,100 to 1000,"CN1Cc2cc(NC(=O)NC(C)(C)C)ccc2N(Cc2ccccc2)C1=O [Example 12, 1-(1-benzyl-3-methyl-2-oxo-1,2,3,4-tetrahydroquinazolin-6-yl)-3-(tert-butyl)urea]"
6,< 100,"C[C@@H](c1ccccc1)N1C(=O)CCc2cc(NC(=O)NC(C)(C)C)ccc21 [Example 13, (S)-1-(tert-butyl)-3-(2-oxo-1-(1-phenylethyl)-1,2,3,4-tetrahydroquinolin-6-yl)urea]"
7,> 1000,"C[C@H](c1ccccc1)N1C(=O)CCc2cc(NC(=O)NC(C)(C)C)ccc21 [Example 14, (R)-1-(tert-butyl)-3-(2-oxo-1-(1-phenylethyl)-1,2,3,4-tetrahydroquinolin-6-yl)urea]"
8,> 1000,"CC1CC(=O)N(Cc2ccccc2)c2ccc(NC(=O)NC(C)(C)C)cc21 (stereo not drawn) [Example 15, 1-(1-benzyl-4-methyl-2-oxo-1,2,3,4-tetrahydroquinolin-6-yl)-3-(tert-butyl)urea]"
9,100 to 1000,"CC(C)(CCO)NC(=O)Nc1ccc2c(c1)CCC(=O)N2Cc1ccccc1 [Example 16, 1-(1-benzyl-2-oxo-1,2,3,4-tetrahydroquinolin-6-yl)-3-(4-hydroxy-2-methylbutan-2-yl)urea]"
10,> 1000,"CC(C)(C)NC(=O)Nc1ccc2c(c1)CCC(=O)N2Cc1ccc(C#N)cc1 [Example 17, 1-(tert-butyl)-3-(1-(4-cyanobenzyl)-2-oxo-1,2,3,4-tetrahydroquinolin-6-yl)urea]"
11,> 1000,"CC(C)(C)NC(=O)Nc1ccc2c(c1)CCC(=O)N2Cc1cccc(C#N)c1 [Example 18, 1-(tert-butyl)-3-(1-(3-cyanobenzyl)-2-oxo-1,2,3,4-tetrahydroquinolin-6-yl)urea]"
12,< 100,"CC(C)(C)NC(=O)Nc1ccc2c(c1)CCC(=O)N2Cc1ccccc1F [Example 19, 3-tert-butyl-1-{1-[(2-fluorophenyl)methyl]-2-oxo-3,4-dihydroquinolin-6-yl}urea]"
13,< 100,"CC(C)(C)NC(=O)Nc1ccc2c(c1)CCC(=O)N2Cc1ccccc1C#N [Example 20, 1-(tert-butyl)-3-(1-(2-cyanobenzyl)-2-oxo-1,2,3,4-tetrahydroquinolin-6-yl)urea]"
14,< 100,"Cc1cccc(CN2C(=O)CCc3cc(NC(=O)NC(C)(C)C)ccc32)c1 [Example 21, 1-(tert-butyl)-3-(1-(3-methylbenzyl)-2-oxo-1,2,3,4-tetrahydroquinolin-6-yl)urea]"
15,< 100,"COc1cccc(CN2C(=O)CCc3cc(NC(=O)NC(C)(C)C)ccc32)c1 [Example 22, 1-(tert-butyl)-3-(1-(3-methoxybenzyl)-2-oxo-1,2,3,4-tetrahydroquinolin-6-yl)urea]"
16,< 100,"CC(C)(C)NC(=O)Nc1ccc2c(c1)CCC(=O)N2Cc1cccc(C(F)(F)F)c1 [Example 23, 1-(tert-butyl)-3-(2-oxo-1-(3-(trifluoromethyl)benzyl)-1,2,3,4-tetrahydroquinolin-6-yl)urea]"
17,< 100,"CC(C)(C)NC(=O)Nc1ccc2c(c1)CCC(=O)N2Cc1cc(Cl)ccc1Cl [Example 24, 3-tert-butyl-1-{1-[(2,5-dichlorophenyl)methyl]-2-oxo-3,4-dihydroquinolin-6-yl}urea]"
18,< 100,"CC(C)(C)NC(=O)Nc1ccc2c(c1)CCC(=O)N2Cc1cc(Cl)cc(Cl)c1 [Example 25, 1-(tert-butyl)-3-(1-(3,5-dichlorobenzyl)-2-oxo-1,2,3,4-tetrahydroquinolin-6-yl) urea]"
